According to article PMC11433014, “In Vitro In Silico Screening Strategy and Mechanism of Novel Tyrosinase Inhibitory Peptides from Nacre of Hyriopsis cumingii” (Marine Drugs, 2024):
“Also recorded” adds a separate entry of the source. Where no end group is shown, it is not given here.

Key:
[1] = test system: superoxide dismutase (SOD); assay: SOD activity in B16F10 cells; assay type: cell-based, mouse; details: 50 μg/mL (highest treatment concentration; Kojic acid 50 μg/mL)
Protocol: (§1) Cell culture and treatment methods were the same as described in Section 3.10. The activities of catalase (CAT), glutathione peroxidase (GSH-Px), and superoxide dismutase (SOD) were determined using the assay kit from Nanjing Jianjian Bioengineering Research Institute (Nanjing, China).

[2] = test system: glutathione peroxidase (GSH-Px); assay: GSH-Px activity in B16F10 cells; assay type: cell-based, mouse; details: 50 μg/mL (highest treatment concentration; Kojic acid 50 μg/mL)
Protocol: as §1

[3] = test system: melanin production in B16F10 cells; assay: Melanin content of B16F10 cells; assay type: cell-based, mouse; details: 50 μg/mL (highest treatment concentration; Kojic acid 50 μg/mL), 48 h, absorbance 405 nm, vs control
Protocol: Cells in the logarithmic growth phase were cultured at a density of 4 × 10^5 cells per well in 6-well plates. Following a 24 h incubation period, the culture supernatant was discarded. Experimental groups were established, including a control group, a positive control group treated with Kojic acid at a concentration of 50 µg/mL [40], and peptide-treated groups at concentrations of 10, 25, and 50 µg/mL. After an additional 24 h of incubation, the cells were lysed, and the resulting cell lysates were subjected to centrifugation at 12,000 rpm for 10 min. The reaction mixture was prepared by combining 50 µL of the cell lysate supernatant, 50 µL of 1 mg/mL L-DOPA, and 50 µL of PBS buffer. This mixture was incubated at 37 °C for 1 h. Subsequently, the level of dopamine formation was quantified spectrophotometrically at a wavelength of 475 nm.
The cell culture stage for melanin content determination was as follows: The cells were washed twice with PBS buffer after 48 h of peptide treatment. Trypsin digestion was performed, and the cells were collected. […] Then, 200 µL of the supernatant was transferred to a 96-well plate, and the absorbance was measured at 405 nm. The melanin content was then expressed as a percentage of the control group.

catalase (CAT) = assay: CAT activity in B16F10 cells; assay type: cell-based, mouse; details: 50 μg/mL (highest treatment concentration; Kojic acid 50 μg/mL)
Protocol: as §1

[4] = test system: tyrosinase activity in B16F10 cells; assay: Intracellular tyrosinase activity in B16F10 cells; assay type: cell-based, mouse; details: 50 μg/mL (highest treatment concentration; Kojic acid 50 μg/mL), 24 h, L-DOPA, 475 nm, vs control
Protocol: Cells in the logarithmic growth phase were cultured at a density of 4 × 10^5 cells per well in 6-well plates. Following a 24 h incubation period, the culture supernatant was discarded. Experimental groups were established, including a control group, a positive control group treated with Kojic acid at a concentration of 50 µg/mL [40], and peptide-treated groups at concentrations of 10, 25, and 50 µg/mL. After an additional 24 h of incubation, the cells were lysed, and the resulting cell lysates were subjected to centrifugation at 12,000 rpm for 10 min. The reaction mixture was prepared by combining 50 µL of the cell lysate supernatant, 50 µL of 1 mg/mL L-DOPA, and 50 µL of PBS buffer. This mixture was incubated at 37 °C for 1 h. Subsequently, the level of […] formation was quantified spectrophotometrically at a wavelength of 475 nm. The activity of tyrosinase was reported as a percentage relative to the blank control.

B16F10 cells = assay: Cytotoxicity to B16F10 cells (CCK-8); assay type: cell-based, mouse; details: 10–800 μg/mL
Protocol: B16F10 cells were purchased from Hunan FengHui Biotechnology Co., Ltd. (Changsha, Hunan, China). Cell cultures of B16F10, specifically from generations 10 to 25, were maintained in a medium consisting of DMEM supplemented with 10% fetal bovine serum and 1% antibiotic–antifungal solution, under conditions of 5% CO2 at 37 °C.
Cell viability was evaluated utilizing the Cell Counting Kit-8 (CCK-8) assay. During the logarithmic growth phase, 100 µL of cell suspension, containing 3000 cells per well, was transferred into 96-well plates. Following a 24 h incubation period at 37 °C, the supernatant was discarded. Wells containing 100 µL of medium were designated as blank controls. […]

Tyrosinase = biological target: T1, Tyrosinase (Agaricus bisporus, UniProt C7FF04); assay: Tyrosinase inhibitory activity assay (mushroom tyrosinase, L-tyrosine substrate); assay type: biochemical; details: 0.5 mg/mL L-tyrosine, PBS, 20 μL tyrosinase (500 U/mL), preincubation 37 °C 10 min, reaction 10 min at 37 °C; mean ± SD of at least three experiments
T1 construct: purchased Shanghai Yuanye Biotechnology Co., Ltd. (Shanghai, China)
T1 sequence (C7FF04 1-392): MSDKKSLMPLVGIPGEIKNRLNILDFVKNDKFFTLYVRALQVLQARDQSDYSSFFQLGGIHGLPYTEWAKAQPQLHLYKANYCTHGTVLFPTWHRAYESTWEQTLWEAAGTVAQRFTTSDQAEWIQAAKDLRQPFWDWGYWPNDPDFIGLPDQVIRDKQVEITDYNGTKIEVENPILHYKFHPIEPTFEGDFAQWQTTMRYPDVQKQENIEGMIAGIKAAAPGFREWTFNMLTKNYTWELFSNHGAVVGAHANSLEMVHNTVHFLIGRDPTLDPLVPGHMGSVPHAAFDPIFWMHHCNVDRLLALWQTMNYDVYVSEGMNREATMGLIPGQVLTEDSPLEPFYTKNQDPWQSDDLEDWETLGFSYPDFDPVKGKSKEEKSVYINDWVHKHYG
Protocol: Tyrosinase (from Mushroom, 500 U/mg) and PBS buffer were purchased from Shanghai Yuanye Biotechnology Co., Ltd. (Shanghai, China). L-tyrosine was obtained from Shanghai Macklin Biochemical Technology Co., Ltd. (Shanghai, China).
A solution of L-tyrosine at a concentration of 0.5 mg/mL, along with the sample solution and PBS buffer, was sequentially introduced into a 96-well plate. The mixture was thoroughly homogenized and subsequently incubated at 37 °C for 10 min. Following this incubation, 20 μL of tyrosinase solution (500 U/mL) was added to each well, and the plate was promptly placed in an enzyme marker for a reaction period of (10 min ± 5 s) at 37 °C.

[5] = ABTS free radical scavenging capacity (kit); details: synthetic peptides, 1 mg/mL; ranking among the three peptides (p < 0.05)
Protocol: (§2) Use a concentration of 1 mg/mL of the enzymatic hydrolysate to assess the free radical scavenging rate. DPPH and ABTS free radical scavenging capacity assays were conducted using kits from Grace Biotechnology Co., Ltd. (Suzhou, Jiangsu, China). The subsequent determination of the inhibitory rate of peptide tyrosinase synthesis and the antioxidant measurement methods refer to this step.

[6] = DPPH free radical scavenging capacity (kit); details: synthetic peptides, 1 mg/mL; comparison among the three peptides, in words
Protocol: as §2

Molecule	increase of SOD activity [1]	increase of GSH-Px activity [2]	decrease of melanin content [3]	increase of CAT activity (catalase (CAT))	decrease of intracellular tyrosinase activity [4]	viability of B16F10 cells (B16F10 cells)	cytotoxicity / viability vs control group (B16F10 cells; in words)	IC50 (Tyrosinase)	ABTS radical scavenging ability (ranking) [5]	DPPH radical scavenging effect [6]
O=c1cc(CO)occ1O [Kojic acid]	68.81%	25.56%	17.39%	32.04%	16.64%					
YPNPY [YPNPY, Tyr-Pro-Asn-Pro-Tyr]						~100%	no significant difference in the viability of B16F10 cells; also recorded: did not exhibit any cytotoxic effects	545 ± 28 µM		
GYHFHSYP [GYHFHSYP, Gly-Tyr-His-Phe-His-Ser-Tyr-Pro]								> 5000 µM	GYHFHSYP > YPNPY > YVPGHG (p < 0.05)	remained consistent at a concentration of 1 mg/mL (p > 0.05)
YVPGHG [YVPGHG, Tyr-Val-Pro-Gly-His-Gly]								> 50000 µM	GYHFHSYP > YPNPY > YVPGHG (p < 0.05)	remained consistent at a concentration of 1 mg/mL (p > 0.05)
